From patent publication US11435363B2, “Relevance of achieved levels of markers of systemic inflammation following treatment” (The Brigham and Women's Hospital, Inc., priority 2004, dated 2022)

Assays:
LDLC = experiment: PROVE IT-TIMI 22: LDLC levels on statin therapy; type: in vivo, human; conditions: for proportion of allocated patients who achieved an LDLC goal of <70 mg/dL: day 30, atorvastatin 80 mg or pravastatin 40 mg, P<0.001
Description: (§1) In total, 4,162 patients who had been hospitalized within the preceding 10 days for acute coronary syndrome and provided written informed consent were enrolled at 349 sites in eight countries. Approximately two-thirds had acute myocardial infarction and the remainder had high-risk unstable angina.
(§2) For this analysis, we defined achieved LDLC and achieved CRP levels as those values obtained at the 30 day follow-up, a period of time adequate for the effect of statin therapy to be seen for both LDLC and CRP and a time when any residual effects of ischemia on each parameter would no longer be evident. Of the total cohort, 3,745 participants (90.0 percent) were alive and free of a recurrent event at day 30 and underwent evaluation for both LDLC and CRP at that time. All laboratory measurements were made in core facilities and a validated assay for high sensitivity CRP used (Denka Seiken).
Spearman correlation coefficients were used to evaluate the relationship between achieved LDLC and achieved CRP. We then used a multi-stage process to address the impact of achieved LDLC and achieved CRP levels on rates of recurrent myocardial infarction or fatal coronary events that occurred after day 30 in the study. First, we divided the study population into increasing quartiles of achieved LDLC and achieved CRP and sought evidence that these levels were associated with increased risk of recurrent myocardial infarction or coronary death, both in age-adjusted analyses and after further adjustment for gender, smoking status (current/non-smoker), diabetes, body mass index (kg/m^2), and history of hypertension. […] To address the relative impact of achieved CRP across LDLC strata, we repeated this process after dividing the study cohort into four groups on the basis of achieved LDLC levels and achieved CRP levels above or below the respective values of 70 mg/dL and 2.0 mg/L. A test for trend across groups was performed assigning a score of 0 to those with low levels of both, a score of 1 to the two intermediate groups, and a score of 2 to those with high levels of both. […]

[1] = test system: acute coronary syndrome patients; conditions: overall trial result, reference (7); cited from earlier work
CRP = conditions: for median CRP level at day 30 / median CRP level at end of study: atorvastatin 80 mg/day or pravastatin 40 mg/day orally; for median CRP level at day 30 / median CRP level at end of study / proportion of treated patients who achieved CRP levels below 2.0 at day 30: P<0.001; for median CRP level at end of study: end of study (mean 24 months); for proportion of treated patients who achieved CRP levels below 2.0 at day 30: atorvastatin 80 mg or pravastatin 40 mg
Description: as §1, §2
(§3) Spearman correlation coefficients were used to evaluate the relationship between achieved LDLC and achieved CRP. We then used a multi-stage process to address the impact of achieved LDLC and achieved CRP levels on rates of recurrent myocardial infarction or fatal coronary events that occurred after day 30 in the study. First, we divided the study population into increasing quartiles of achieved LDLC and achieved CRP and sought evidence that these levels were associated with increased risk of recurrent myocardial infarction or coronary death, both in age-adjusted analyses and after further adjustment for gender, smoking status (current/non-smoker), diabetes, body mass index (kg/m^2), and history of hypertension. […] To address the relative impact of achieved CRP across LDLC strata, we repeated this process after dividing the study cohort into four groups on the basis of achieved LDLC levels and achieved CRP levels above or below the respective values of 70 mg/dL and 2.0 mg/L. A test for trend across groups was performed assigning a score of 0 to those with low levels of both, a score of 1 to the two intermediate groups, and a score of 2 to those with high levels of both. Similar analyses were performed after stratification of the study group according to atorvastatin or pravastatin allocation. Estimates of hazard ratios were obtained using Cox proportional-hazards models.

[2] = test system: acute coronary syndrome patients; experiment: PROVE IT-TIMI 22: recurrent myocardial infarction or coronary death after day 30; type: in vivo, human; conditions: for recurrent event rate, achieved LDLC <70 mg/dL and achieved CRP greater than 2.0 mg/L / recurrent event rate, achieved LDLC <70 mg/dL and achieved CRP less than 2.0 mg/L: recurrent myocardial infarction or coronary death, P for difference between agents=0.7
Description: as §1, §2, §3

SMILES	LDLC levels compared with the pravastatin group (LDLC; day 30, 4 months and end of study, identical at randomization)	proportion of allocated patients who achieved an LDLC goal of <70 mg/dL (LDLC)	overall clinical outcome in the PROVE IT-TIMI 22 trial [1]	median CRP level at day 30 (CRP)	median CRP level at end of study (CRP)	proportion of treated patients who achieved CRP levels below 2.0 at day 30 (CRP)	fully adjusted hazard ratio for atorvastatin vs pravastatin, clinical outcomes ([2]; after accounting for achieved LDLC and achieved CRP, 95% CI 0.75 to 1.34, P=0.9)	recurrent event rate, achieved LDLC <70 mg/dL and achieved CRP greater than 2.0 mg/L [2]	recurrent event rate, achieved LDLC <70 mg/dL and achieved CRP less than 2.0 mg/L [2]	effect on CRP levels (CRP; gatifloxicin versus placebo allocation in this population)
CC(C)c1c(C(=O)Nc2ccccc2)c(-c2ccccc2)c(-c2ccc(F)cc2)n1CC[C@@H](O)C[C@@H](O)CC(=O)O [atorvastatin]	significantly lower	72.3%	superior to pravastatin overall	1.6 mg/L	1.3 mg/1	57.5%	1.00	3.1 per 100 person-years	2.3 per 100 person-years	
COc1c(N2CCNC(C)C2)c(F)cc2c(=O)c(C(=O)O)cn(C3CC3)c12 (stereo not shown) [gatifloxicin]										no significant effect on CRP levels
CC[C@H](C)C(=O)O[C@H]1C[C@H](O)C=C2C=C[C@H](C)[C@H](CC[C@@H](O)C[C@@H](O)CC(=O)O)[C@H]21 [pravastatin]		21.7%		2.3 mg/L	2.1 mg/1	44.9%		3.4 per 100 person-years	2.5 per 100 person-years	
